Source: US10052320B2, “Substituted quinoxalines as FGFR kinase inhibitors” (ASTEX THERAPEUTICS LIMITED, priority 2011, dated 2018)

Assays:
FGFR4 (h) = FGFR4 (h) (Homo sapiens, UniProt P22455); experiment: FGFR4 (enzymatic assay), TR-FRET; type: biochemical; settings: read-out: FGFR 4 pIC50 (converted)
Procedure: (§1) In a final reaction volume of 30 μL, FGFR4 (h) (60 ng/ml) was incubated with 50 mM HEPES pH 7.5, 6 mM MnCl2, 1 mM DTT, 0.1 mM Na3VO4, 0.01% Triton-X-100, 500 nM Btn-Flt3 and 5 μM ATP in the presence of compound (1% DMSO final). […] Time-Resolved Fluorescence Resonance Energy Transfer (TR-FRET) signal (ex340 nm. Em 620 nm, em 655 nm) was measured afterwards and results are expressed in RFU (Relative Fluorescence Units).

FGFR2 (h) = FGFR2 (h) (Homo sapiens, UniProt P21802); experiment: FGFR2 (enzymatic assay), TR-FRET; type: biochemical; settings: read-out: FGFR 2 pIC50 (converted)
FGFR2 (h), sequence (P21802 22-821): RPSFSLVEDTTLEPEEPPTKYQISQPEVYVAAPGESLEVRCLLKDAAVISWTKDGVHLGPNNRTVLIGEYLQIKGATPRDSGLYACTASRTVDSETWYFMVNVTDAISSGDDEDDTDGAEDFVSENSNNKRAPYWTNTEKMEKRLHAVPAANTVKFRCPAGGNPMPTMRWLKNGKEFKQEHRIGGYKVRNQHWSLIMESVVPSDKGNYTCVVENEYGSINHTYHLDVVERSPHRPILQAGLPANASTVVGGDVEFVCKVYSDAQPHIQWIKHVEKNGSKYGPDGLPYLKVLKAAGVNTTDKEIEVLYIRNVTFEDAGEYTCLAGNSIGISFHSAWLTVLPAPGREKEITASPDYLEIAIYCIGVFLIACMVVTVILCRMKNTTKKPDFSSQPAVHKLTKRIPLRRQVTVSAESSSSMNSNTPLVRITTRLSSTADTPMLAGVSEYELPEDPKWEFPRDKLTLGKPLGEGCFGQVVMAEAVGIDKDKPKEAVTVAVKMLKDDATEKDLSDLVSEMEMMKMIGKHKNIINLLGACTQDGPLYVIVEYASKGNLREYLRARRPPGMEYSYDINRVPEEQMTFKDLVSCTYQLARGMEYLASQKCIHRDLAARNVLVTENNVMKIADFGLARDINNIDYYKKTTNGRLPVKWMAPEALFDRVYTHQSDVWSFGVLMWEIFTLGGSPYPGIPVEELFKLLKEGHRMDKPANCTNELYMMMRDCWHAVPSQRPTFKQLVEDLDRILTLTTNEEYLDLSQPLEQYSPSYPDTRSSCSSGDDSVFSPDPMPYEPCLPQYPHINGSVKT
Procedure: as §1, with “μL, FGFR2” for “μL, FGFR4”, “(h) (150” for “(h) (60”, “and 0.4” for “and 5”, “in” for “in RFU”

[1] = molecular target: Ba/F3-KDR-transfected cells (Homo sapiens, UniProt P35968); experiment: Ba/F3-KDR (minus IL3) cellular proliferation assay, Alamar Blue; type: cell-based; settings: minus IL3
Ba/F3-KDR-transfected cells, sequence (P35968 whole entry, change not shown): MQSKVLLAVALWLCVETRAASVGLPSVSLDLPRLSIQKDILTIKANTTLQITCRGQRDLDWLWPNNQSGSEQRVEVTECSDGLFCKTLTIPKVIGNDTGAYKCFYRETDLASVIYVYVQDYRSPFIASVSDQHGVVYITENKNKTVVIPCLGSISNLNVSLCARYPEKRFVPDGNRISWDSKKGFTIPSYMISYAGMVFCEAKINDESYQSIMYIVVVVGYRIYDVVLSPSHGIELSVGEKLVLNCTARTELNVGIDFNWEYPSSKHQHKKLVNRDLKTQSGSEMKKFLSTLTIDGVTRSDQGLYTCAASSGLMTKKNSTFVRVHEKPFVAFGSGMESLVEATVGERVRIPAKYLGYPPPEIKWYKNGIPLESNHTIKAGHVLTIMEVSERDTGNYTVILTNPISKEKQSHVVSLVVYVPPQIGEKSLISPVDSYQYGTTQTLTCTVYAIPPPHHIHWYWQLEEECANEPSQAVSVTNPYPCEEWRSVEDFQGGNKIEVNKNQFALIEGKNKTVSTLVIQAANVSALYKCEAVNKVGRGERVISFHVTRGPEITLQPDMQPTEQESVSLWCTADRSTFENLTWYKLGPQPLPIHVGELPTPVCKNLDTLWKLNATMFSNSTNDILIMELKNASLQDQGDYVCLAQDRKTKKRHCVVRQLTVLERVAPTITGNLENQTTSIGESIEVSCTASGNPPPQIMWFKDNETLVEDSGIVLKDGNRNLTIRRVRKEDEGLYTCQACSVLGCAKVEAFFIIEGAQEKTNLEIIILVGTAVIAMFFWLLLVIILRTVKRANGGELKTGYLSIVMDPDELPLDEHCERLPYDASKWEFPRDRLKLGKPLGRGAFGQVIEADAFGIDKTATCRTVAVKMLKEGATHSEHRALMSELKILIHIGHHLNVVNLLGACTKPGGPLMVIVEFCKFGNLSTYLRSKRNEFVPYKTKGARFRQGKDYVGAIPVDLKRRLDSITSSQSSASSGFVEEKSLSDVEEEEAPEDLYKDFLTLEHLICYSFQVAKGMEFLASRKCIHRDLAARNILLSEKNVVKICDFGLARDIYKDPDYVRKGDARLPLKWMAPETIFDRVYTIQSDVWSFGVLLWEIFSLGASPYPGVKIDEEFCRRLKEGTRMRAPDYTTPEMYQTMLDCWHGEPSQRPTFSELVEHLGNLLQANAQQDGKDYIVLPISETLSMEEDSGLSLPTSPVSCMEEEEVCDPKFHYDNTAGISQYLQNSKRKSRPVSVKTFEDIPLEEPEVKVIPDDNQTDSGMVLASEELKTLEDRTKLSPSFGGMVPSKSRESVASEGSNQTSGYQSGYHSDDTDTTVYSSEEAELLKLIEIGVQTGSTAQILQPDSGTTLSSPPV
Summary of the method: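 Compound in DMSO was combined with Ba/F3-KDR-transfected cells in RPMI-1640, 10% FBS, 2 mM L-glutamine. After 24 h incubation at 37 °C, Alamar Blue was added for a further 4 h, then relative fluorescence units were measured.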

[2] = molecular target: Ba/F3-FGFR4-transfected cells (Homo sapiens, UniProt P22455); experiment: Ba/F3-FGFR4 cellular proliferation assay, Alamar Blue; type: cell-based
Ba/F3-FGFR4-transfected cells, sequence (P22455 whole entry, change not shown): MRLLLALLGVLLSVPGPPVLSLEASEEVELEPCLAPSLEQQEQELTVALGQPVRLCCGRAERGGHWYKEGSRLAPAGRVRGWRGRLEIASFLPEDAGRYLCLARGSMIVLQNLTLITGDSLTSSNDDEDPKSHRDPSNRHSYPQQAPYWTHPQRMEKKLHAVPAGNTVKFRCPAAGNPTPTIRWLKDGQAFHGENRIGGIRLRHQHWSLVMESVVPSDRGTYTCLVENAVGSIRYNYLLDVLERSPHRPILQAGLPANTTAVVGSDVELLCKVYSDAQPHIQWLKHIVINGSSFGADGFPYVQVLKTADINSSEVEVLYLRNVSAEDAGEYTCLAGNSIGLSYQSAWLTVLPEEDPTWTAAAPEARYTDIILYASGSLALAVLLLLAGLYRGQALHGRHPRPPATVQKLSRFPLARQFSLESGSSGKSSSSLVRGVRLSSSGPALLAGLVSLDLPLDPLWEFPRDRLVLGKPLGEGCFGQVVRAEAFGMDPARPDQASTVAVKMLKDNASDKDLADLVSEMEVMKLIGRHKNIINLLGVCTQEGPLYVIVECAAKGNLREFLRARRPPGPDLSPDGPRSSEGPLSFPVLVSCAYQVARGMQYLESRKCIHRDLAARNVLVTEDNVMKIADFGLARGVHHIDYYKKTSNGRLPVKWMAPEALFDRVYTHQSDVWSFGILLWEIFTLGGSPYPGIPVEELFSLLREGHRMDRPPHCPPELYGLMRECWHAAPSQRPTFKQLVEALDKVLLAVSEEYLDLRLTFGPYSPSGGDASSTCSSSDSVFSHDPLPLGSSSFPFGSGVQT
Summary of the method: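 Alamar Blue fluorescence (540/590 nm, 4 h development) measured growth of FGFR4-transfected Ba/F3 cells after 24 h compound treatment at 37° C. Cells were seeded at 20000/well in RPMI-1640, 10% FBS.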

[3] = test system: Ba/F3-Flt3-transfected cells in the presence of 10 ng/ml murine IL3; experiment: Ba/F3-Flt3 (plus IL3) cellular proliferation counterscreen, Alamar Blue; type: cell-based; settings: Mus musculus; plus 10 ng/ml murine IL3; read-out: BAF3-FLT3 (PLUS IL3) 384 well pIC50 (converted)

FGFR4 (h), sequence (P22455 22-802): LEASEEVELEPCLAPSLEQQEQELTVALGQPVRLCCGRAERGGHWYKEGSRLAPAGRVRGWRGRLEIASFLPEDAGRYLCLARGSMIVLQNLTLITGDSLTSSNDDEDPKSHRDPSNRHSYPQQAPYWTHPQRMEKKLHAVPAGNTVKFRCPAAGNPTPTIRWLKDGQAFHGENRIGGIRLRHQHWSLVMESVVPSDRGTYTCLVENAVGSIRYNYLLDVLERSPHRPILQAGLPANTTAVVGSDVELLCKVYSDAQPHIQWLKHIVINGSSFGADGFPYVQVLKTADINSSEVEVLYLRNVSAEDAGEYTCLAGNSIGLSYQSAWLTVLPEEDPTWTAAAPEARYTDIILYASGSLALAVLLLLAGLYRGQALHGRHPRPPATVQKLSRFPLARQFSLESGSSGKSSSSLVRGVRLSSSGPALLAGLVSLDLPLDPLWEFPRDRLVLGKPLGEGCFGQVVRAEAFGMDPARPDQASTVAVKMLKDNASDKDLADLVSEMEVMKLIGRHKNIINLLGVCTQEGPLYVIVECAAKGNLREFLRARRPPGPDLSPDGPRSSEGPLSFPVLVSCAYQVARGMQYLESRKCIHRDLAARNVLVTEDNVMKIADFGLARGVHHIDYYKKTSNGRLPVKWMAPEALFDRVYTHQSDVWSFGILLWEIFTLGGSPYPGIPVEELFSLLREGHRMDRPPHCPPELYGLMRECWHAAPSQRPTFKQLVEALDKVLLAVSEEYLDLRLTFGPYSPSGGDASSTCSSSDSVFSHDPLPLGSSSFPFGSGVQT

IC50 (FGFR4 (h)) [nM]	melting point [°C]	IC50 (FGFR2 (h)) [nM]	BAF3-KDR (MIN IL3) 384 well pIC50 [1]	BAF3-FGFR4 pIC50 [2]	BAF3-KDR (MIN IL3) 96 well pIC50 [1]	Structure (SMILES)	IC50 [3] [nM]
145	169	17.4	5.45	6.2	–	COc1cc(OC)cc(N(CC2CO2)c2ccc3ncc(-c4ccc(N)nc4)nc3c2)c1 (stereo not shown) [Compound 110]	> 10000
70.8	195	23.4	<5	5.9	–	COc1cc(OC)cc(N(CCO)c2ccc3ncc(-c4ccc(OC)nc4)nc3c2)c1 [Compound 111]	> 10000
17.8	188	10.7	5.19	6.4	–	CNc1ccc(-c2cnc3ccc(N(CCCO)c4cc(OC)cc(OC)c4)cc3n2)cn1 [Compound 116]	> 10000

More lines, now with the values behind:

Structure (SMILES)	IC50 (FGFR4 (h)) [nM]	melting point [°C]	IC50 (FGFR2 (h)) [nM]	BAF3-KDR (MIN IL3) 384 well pIC50 [1]	BAF3-FGFR4 pIC50 [2]	BAF3-KDR (MIN IL3) 96 well pIC50 [1]	IC50 [3] [nM]
CNC(=O)OCCN(c1cc(OC)cc(OC)c1)c1ccc2ncc(-c3ccc(NC(=O)OC(C)(C)C)nc3)nc2c1 [Compound 80]	> 1000	214	912	<5	<5	–	> 10000
COc1cc(OC)cc(N(CC2CC2)c2ccc3ncc(-c4nnnn4C)nc3c2)c1 [Compound 83]	> 1000	168	> 1000	<5	<5	<5	> 10000
COc1cc(OC)cc(N(CC2CC2)c2ccc3ncc(-c4ocnc4C)nc3c2)c1 [Compound 104]	575	141	~417	<5	<5	–	> 10000
COc1cc(OC)cc(N(CCCO)c2ccc3ncc(-c4cccnc4)nc3c2)c1 [Compound 112]	58.9	150	20.9	<5	5.8	–	> 10000
COc1cc(OC)cc(N(CCO)c2ccc3ncc(-c4ccccc4)nc3c2)c1 [Compound 120]	20	124	15.1	<5	6.0	–	> 10000
COc1cc(OC)cc(N(CCO)c2ccc3ncc(-c4ccnc(C(=O)NCCCN)c4)nc3c2)c1 [Compound 123]	245	103	25.7	<5	5.2	–	> 10000
COc1cc(OC)cc(N(CCCO)c2ccc3ncc(-c4ccnc(NC(=O)OC(C)(C)C)c4)nc3c2)c1 [Compound 128]	> 1000	213	135	<5	<5	–	> 10000
